Measurements reported in ChEMBL document CHEMBL1135163, “Design, synthesis, and evaluation of postulated transient intermediate and substrate analogues as inhibitors of 4-hydroxyphenylpyruvate dioxygenase” (Bioorg Med Chem Lett, 2002).

Target: 4-hydroxyphenylpyruvate dioxygenase (Sus scrofa, UniProt Q02110)
Assay: In vitro inhibition against of 4-Hydroxyphenylpyruvate dioxygenase (4-HPPD) from pig liver by the enol borate method

Chain of 4-hydroxyphenylpyruvate dioxygenase (Q02110 whole entry): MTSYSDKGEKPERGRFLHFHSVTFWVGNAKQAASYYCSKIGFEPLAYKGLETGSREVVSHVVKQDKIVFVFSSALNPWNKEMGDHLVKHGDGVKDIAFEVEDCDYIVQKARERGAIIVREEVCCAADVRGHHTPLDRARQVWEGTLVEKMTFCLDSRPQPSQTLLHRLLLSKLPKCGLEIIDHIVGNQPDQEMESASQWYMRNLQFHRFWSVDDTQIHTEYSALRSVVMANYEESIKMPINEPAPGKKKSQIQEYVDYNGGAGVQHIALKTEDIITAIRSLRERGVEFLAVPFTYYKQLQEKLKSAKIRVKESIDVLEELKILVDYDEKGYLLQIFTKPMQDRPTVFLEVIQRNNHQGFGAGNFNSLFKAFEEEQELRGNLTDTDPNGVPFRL

SMILES	IC50 [µM]
C=C(c1ccccc1)C(O)C(=O)O (stereo unspecified)	> 900
COC(=O)CC12OC1C(=O)C(OC)=CC2=O (stereo unspecified)	500
O=C(O)COc1ccc(O)cc1	6
O=C1OCC(c2ccccc2)=C1O	0.5
COC(=O)C1OC1(C)c1ccccc1 (stereo unspecified)	120
COC(=O)CC1=CC(=O)C(OC)=CC1=O	150

Second part, the molecule after the results:

IC50 [µM]	SMILES
> 900	C=C(c1ccccc1)C(O)C(=O)OC (stereo unspecified)
93	CC(Oc1ccc(O)cc1)C(=O)O (stereo unspecified)
73	CCOC(=O)COc1ccc(O)cc1
588	CCOC(=O)C(C)Oc1ccc(O)cc1 (stereo unspecified)
223	COC(=O)COc1ccc(O)cc1
